Results reported in patent US8071117B2, “Pheromones” (East Malling Research Limited, priority 2004, dated 2011).
Entries after “also recorded” stand apart in the source; their conditions may differ. Values belong to the compound of their own block, whether it stands above or below them.

Tests used:
[1] = tested on: male midge EAG preparation (raspberry cane midge); test: GC-EAG analysis with male midge EAG preparation; parameters: species or system Resseliella theobaldi; conditions: volatiles from female midges, polar GC column
Protocol: GC-EAG analyses were carried out with a […] GC (Agilent) fitted with capillary GC columns ([…]×0.32 mm i.d.) coated with polar (Wax10; Supelco) and non-polar (SPB 1; Supelco) phases. Injection was splitless (220° C.) and detection was by FID (250°). The oven temperature was programmed from 50° C. for 2 min, then at 10° C./min to 250° C. The GC column effluent was split (1:1) between the FID and a silanised glass T-piece in the column oven. Nitrogen (500 ml/min) was blown continuously over the EAG preparation and every 17 sec this was diverted through the T-piece for 3 sec, blowing the contents over the EAG preparation, as described by Cork et al. (1991).
Following experience working with other midge species, the EAG preparation was set up by suspending the whole insect between glass electrodes containing electrolyte (0.1 M potassium chloride with 10% polyvinylpyrrolidone added to reduce evaporation). The ends of both antennae were inserted into the recording electrode and the body into the reference electrode. The electrodes were inserted into silver/silver chloride electrodes held in micromanipulators on the portable EAG device developed by Syntech (INR-02; Syntech, Hilversum, The Netherlands).
Major female-specific component is at 14.24 min; 2-undecanone at 9.07 min, 2-acetoxyundecane at 9.77 min and 2-undecanol at 10.45 min. EAG signals at 13.2 min and 14.9 min are probably interference spikes.

[2] = Rate of release of pheromone components from lures in laboratory wind tunnel; type: physicochemical; conditions: for Mean release rate: 27° C., 8 km/hr wind speed; for Mean ratio (release rate to the major component): major component = 100
Protocol: Measurements were made of the rates of release of the components from lures maintained in a laboratory wind tunnel at 27° C. and 8 km/hr wind speed. Volatiles were collected onto Porapak Q under same conditions for approximately 2 hours and the collections were analysed by Gas Chromatography with a flame ionisation detector using a polar column.
Release rates (ng/hr) and their ratios to the major component are shown.

[3] = tested on: male raspberry cane midges; test: Field studies: sticky traps baited with rubber septum or polythene vial lures in raspberry plantations; type: in vivo, Resseliella theobaldi; conditions: for Mean total number males captured per trap (n): Log10(n + 1) / Mean total number males captured per trap (n): n: 11 May-7 Jun 2005, 10 plantations; for attractiveness to raspberry cane midge males (in words): field tests
Excerpt: • A) Sticky traps baited with a rubber septum or polythene vial lure containing 100 microgrammes of racemic 2-acetoxy-5-undecanone were deployed in ten raspberry plantations at Belks farm, Otham, Kent, Beech Farm, West Peckham Kent and East Malling Research between 11 May and 31 May 2005. An average of 153 male raspberry cane midges were caught, per trap, compared to an average of 1 in similar traps not baited with a lure. […] Sticky traps baited with a rubber septa or polythene vial lure containing 100 micrograms of racemic 2-acetoxy-5-undecanone alone or in admixture with 30 micrograms of racemic 2-undecanol, 30 micrograms of undecanone and 30 micrograms of racemic 2-undecyl acetate were deployed in ten raspberry plantations, 4 at Belks farm, Otham, Kent, 4 at Beech Farm, West Peckham Kent and 2 at East Malling Research, Kent between 11 May and 7 Jun. 2005 in a randomised complete block experimental design with the 10 different plantations as blocks.
The baited traps caught an average of 201 male raspberry cane midges per trap compared to an average of 1 in similar traps not baited with a lure.

male apple leaf midges = test: Field studies: sticky delta traps baited with synthetic lures in apple orchards; type: in vivo, Dasineura mali; conditions: for males caught: 19-27 May 2004; for attractiveness to male apple leaf midges (in words): in vivo; for average male midges caught: 5 replicate traps, 7 May-20 May 2004, East Malling; for average male apple leaf midges caught: 24-27 May 2004
Excerpt: A) Sticky delta traps baited with the synthetic lures impregnated with racemic (Z)-13-acetoxy-8-heptadecen-2-one were deployed in apple orchards. Large numbers of male apple leaf midges were caught in traps baited with the compound dispensed into the atmosphere from rubber septa.

Mean release rate ([2]; Interval 3 days, Septa): 20.2 ng/h | Mean ratio (release rate to the major component) ([2]; Interval 3 days, Septa): 25 | Mean release rate ([2]; Interval 3 days, Vial): 19.5 ng/h | Mean ratio (release rate to the major component) ([2]; Interval 3 days, Vial): 52 | Mean release rate ([2]; Interval 5 days, Vial): 21.1 ng/h | Mean ratio (release rate to the major component) ([2]; Interval 5 days, Vial): 45 | Mean release rate ([2]; Interval 11 days, Septa): 27.4 ng/h | Mean ratio (release rate to the major component) ([2]; Interval 11 days, Septa): 81 | Mean release rate ([2]; Interval 11 days, Vial): 29.4 ng/h | Mean ratio (release rate to the major component) ([2]; Interval 11 days, Vial): 36 | Mean release rate ([2]; Interval 25 days, Vial): 17.4 ng/h | Mean ratio (release rate to the major component) ([2]; Interval 25 days, Vial): 25 | Mean release rate ([2]; Interval 26 days, Septa): 7.4 ng/h | Mean ratio (release rate to the major component) ([2]; Interval 26 days, Septa): 25
Structure (SMILES): CCCCCCCCCC(C)O (racemic) [2-undecanol]
EAG response [1]: probably responses

Structure (SMILES): CCCCCCCCCC(C)OC(C)=O (racemic) [2-undecyl acetate, 2-acetoxyundecane]
EAG response [1]: probably responses | Mean release rate ([2]; Interval 3 days, Septa): 30.8 ng/h | Mean ratio (release rate to the major component) ([2]; Interval 3 days, Septa): 38 | Mean release rate ([2]; Interval 3 days, Vial): 23.8 ng/h | Mean ratio (release rate to the major component) ([2]; Interval 3 days, Vial): 64 | Mean release rate ([2]; Interval 5 days, Vial): 20.6 ng/h | Mean ratio (release rate to the major component) ([2]; Interval 5 days, Vial): 44 | Mean release rate ([2]; Interval 11 days, Septa): 14.5 ng/h | Mean ratio (release rate to the major component) ([2]; Interval 11 days, Septa): 43 | Mean release rate ([2]; Interval 11 days, Vial): 31.7 ng/h | Mean ratio (release rate to the major component) ([2]; Interval 11 days, Vial): 39 | Mean release rate ([2]; Interval 25 days, Vial): 21.8 ng/h | Mean ratio (release rate to the major component) ([2]; Interval 25 days, Vial): 31 | Mean release rate ([2]; Interval 26 days, Septa): 8.9 ng/h | Mean ratio (release rate to the major component) ([2]; Interval 26 days, Septa): 30

Structure (SMILES): CCCCCCC(=O)CCC(C)OC(C)=O (racemic) [racemic 2-acetoxy-5-undecanone, 2-acetoxy-5-undecanone]
average male raspberry cane midges caught per trap ([3]; 100 microgrammes lure, rubber septum or polythene vial, ten plantations, 11 May-31 May 2005): 153 | Mean total number males captured per trap (n): Log10(n + 1) ([3]; Dispenser Septa): 1.969 | Mean total number males captured per trap (n): n ([3]; Dispenser Septa): 218 | Mean total number males captured per trap (n): Log10(n + 1) ([3]; Dispenser Vial): 2.042 | Mean total number males captured per trap (n): n ([3]; Dispenser Vial): 230 | attractiveness to raspberry cane midge males (in words) [3]: highly attractive; also recorded: attracted a significant number | attractiveness to raspberry cane midge males (in words) ([3]; listed as 2-acetoxy-5-undecanone): work exceptionally well | Mean release rate ([2]; Interval 3 days, Septa): 81.8 ng/h | Mean ratio (release rate to the major component) ([2]; Interval 3 days, Septa): 100 | Mean release rate ([2]; Interval 3 days, Vial): 37.1 ng/h | Mean ratio (release rate to the major component) ([2]; Interval 3 days, Vial): 100 | Mean release rate ([2]; Interval 5 days, Vial): 47.0 ng/h | Mean ratio (release rate to the major component) ([2]; Interval 5 days, Vial): 100 | Mean release rate ([2]; Interval 11 days, Septa): 33.8 ng/h | Mean ratio (release rate to the major component) ([2]; Interval 11 days, Septa): 100 | Mean release rate ([2]; Interval 11 days, Vial): 81.8 ng/h | Mean ratio (release rate to the major component) ([2]; Interval 11 days, Vial): 100 | Mean release rate ([2]; Interval 25 days, Vial): 69.8 ng/h | Mean ratio (release rate to the major component) ([2]; Interval 25 days, Vial): 100 | Mean release rate ([2]; Interval 26 days, Septa): 29.5 ng/h | Mean ratio (release rate to the major component) ([2]; Interval 26 days, Septa): 100

Structure (SMILES): CCCCC(CCC/C=C\CCCCCC(C)=O)OC(C)=O (racemic) [racemic (Z)-13-acetoxy-8-heptadecen-2-one, (Z)-13-acetoxy-8-heptadecen-2-one]
distance at which lures attract significant numbers of males (male apple leaf midges; 100 micrograms lure): at least 50 m | males caught (male apple leaf midges; 100 micrograms lure, 10 m from isolated infested orchard): 563 | males caught (male apple leaf midges; 100 micrograms lure, 20 m from isolated infested orchard): 348 | males caught (male apple leaf midges; 100 micrograms lure, 30 m from isolated infested orchard): 148 | males caught (male apple leaf midges; 100 micrograms lure, 40 m from isolated infested orchard): 266 | males caught (male apple leaf midges; 100 micrograms lure, 50 m from isolated infested orchard): 103 | attractiveness to male apple leaf midges (in words) (male apple leaf midges): Large numbers | attractiveness to male apple leaf midges (in words) (male apple leaf midges; listed as 13-acetoxy-8-heptadecen-2-one): strongly attractive effect | attractiveness to male apple leaf midges (in words) (male apple leaf midges; listed as (Z)-13-acetoxy-8-heptadecen-2-one): racemic mixtures work exceptionally well | apple leaf midges attracted to a trap (male apple leaf midges; one test, in one day, released at approximately 1 ng/hr): 1,600 | average male midges caught (male apple leaf midges; rubber septa 10 micrograms): 1201 | average male midges caught (male apple leaf midges; rubber septa 100 micrograms): 4037 | average male apple leaf midges caught (male apple leaf midges; rubber septum lure 1 microgram): 12 | average male apple leaf midges caught (male apple leaf midges; rubber septum lure 3 microgram): 97 | average male apple leaf midges caught (male apple leaf midges; rubber septum lure 10 microgram): 273

Structure (SMILES): CCCCCCC(=O)CCC(C)OC(C)=O (single isomer, unassigned) [major female-specific component, 2-acetoxy-5-undecanone]
EAG response [1]: EAG response was always observed

Structure (SMILES): CCCCCCCCCC(C)=O [2-undecanone]
Mean release rate ([2]; Interval 3 days, Septa): 21.6 ng/h | Mean ratio (release rate to the major component) ([2]; Interval 3 days, Septa): 26 | Mean release rate ([2]; Interval 3 days, Vial): 41.2 ng/h | Mean ratio (release rate to the major component) ([2]; Interval 3 days, Vial): 111 | Mean release rate ([2]; Interval 5 days, Vial): 39.4 ng/h | Mean ratio (release rate to the major component) ([2]; Interval 5 days, Vial): 84 | Mean release rate ([2]; Interval 11 days, Septa): 14.3 ng/h | Mean ratio (release rate to the major component) ([2]; Interval 11 days, Septa): 42 | Mean release rate ([2]; Interval 11 days, Vial): 39.6 ng/h | Mean ratio (release rate to the major component) ([2]; Interval 11 days, Vial): 48 | Mean release rate ([2]; Interval 25 days, Vial): 21.6 ng/h | Mean ratio (release rate to the major component) ([2]; Interval 25 days, Vial): 31 | Mean release rate ([2]; Interval 26 days, Septa): 9.9 ng/h | Mean ratio (release rate to the major component) ([2]; Interval 26 days, Septa): 34
